Structures can show the parent of a compound that is named as a salt.
Each compound was assayed against T1, human 5-HT4(a) (Homo sapiens, UniProt Q13639) (assay: Evaluation of agonistic activity in CHO-K1 cells expressing human 5-HT4(a) (GeneBlAzer HTR4-CRE-bla, beta-lactamase reporter)). Settings: 5 hours incubation, 8 concentrations.
T1 construct: host or cells: GeneBlAzer HTR4-CRE-bla CHO-K1 cells
Format: cell-based
Description: Evaluation of Agonistic Activity in CHO-K1 Cells Expressing Human 5-HT4(a)
As CHO-K1 cells stably expressing human 5-HT4(a), we used the GeneBlAzer HTR4-CRE-bla CHO-K1 cells (Invitrogen corp.). The cells were cultured in DMEM medium supplemented with 10% bovine fetal serum (FBS), 25 mM HEPES (pH 7.4), 600 μg/ml Hygromycin B, 0.1 mM non-essential amino acids, 100 unit/ml penicillin and 100 μg/ml streptomycin under the condition of 37° C. and 5% CO2. Subcultures were performed three times per a week, each being at less than 80% confluence. At the previous day before treating test compounds, the cells were collected by using 0.5% trypsin/EDTA, and then diluted with a DMEM supplemented with 1% FBS, 25 mM HEPES and 0.1 mM non-essential amino acids into 3.125×10^5 cells/ml. 32 μl of the diluted cells were added into 384-well plate (10,000 cells/well) and then incubated overnight. The compounds to be used as a test material and a control drug were prepared as 500× of the various final treating concentrations of the drug with 100% DMSO, and then treated to the medium after diluting them to 100-folds to be 1% of the final DMSO concentration equally. After culturing overnight, 8 μl of the medium having 1% of DMSO was added into the cell-free control well and the non-stimulating control well, respectively. 8 μl of the control drug or the test material (which had been prepared by diluting 100-folds with the medium as mentioned in the above) having 1% of DMSO, were added to the respective remaining wells. After culturing in an incubator for 5 hours, the wells of the 384-plate were treated with the substrate solution (8 μl/well) prepared according to the vendor's instruction (i.e. Invitrogen's instruction), and then incubated in the dark room for additional 2 hours. Agonistic activities on 5-HT4 receptor were evaluated, on the basis of fluorescent values of the cleavage-products, which is generated cAMP-concentration dependently per equal time by beta-lactamase. After exciting to 410 nm of wavelength by using Genios Pro Fluorescence Detector, we measured the fluorescence values at two emission wavelengths (first wavelength: 465 nm, second wavelength: 535 nm). Data were analyzed on the basis of the ratio of fluorescence intensities of each well at the respective wavelengths. For all plates, the concentrations-response curve (1 pM-100 nM) of the control drug (Tegaserod) was included. Each EC50 values of the test compounds were calculated by non-linear regression analysis using GraphPad Prism program, based on the concentration-reactivity values according to 8-different concentrations of the test compounds.

T1 sequence (Q13639 1-387 isoform Q13639-2): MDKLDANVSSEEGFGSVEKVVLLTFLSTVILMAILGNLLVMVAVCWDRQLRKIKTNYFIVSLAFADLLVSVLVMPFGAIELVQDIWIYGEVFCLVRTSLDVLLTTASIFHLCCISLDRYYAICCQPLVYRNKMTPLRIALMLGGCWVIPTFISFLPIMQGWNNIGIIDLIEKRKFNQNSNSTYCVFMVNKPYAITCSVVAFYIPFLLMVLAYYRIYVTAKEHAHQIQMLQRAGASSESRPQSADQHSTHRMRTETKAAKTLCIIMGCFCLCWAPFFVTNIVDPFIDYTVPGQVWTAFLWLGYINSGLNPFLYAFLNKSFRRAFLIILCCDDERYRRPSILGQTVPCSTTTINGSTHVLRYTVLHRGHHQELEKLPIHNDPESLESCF

Going from COc1cc2nc(Nc3cc(N)cc(C(F)(F)F)c3)nc(N3CC[C@H](NC(C)=O)C3)c2cc1OC [Example 7, (S)—N-{1-(2-[{3-amino-5-(trifluoromethyl)-phenyl}amino]-6,7-dimethoxyquinazolin-4-yl)pyrrolidin-3-yl}acetamide] to COc1ccc2nc(Nc3cc(N)cc(C(F)(F)F)c3)nc(N3CC[C@H](NC(C)=O)C3)c2c1 [Example 14, (S)—N-{1-(2-[{3-amino-5-(trifluoromethyl)-phenyl}amino]-6-methoxyquinazolin-4-yl)pyrrolidin-3-yl}-acetamide], the EC50 falls from 0.03 nM to 0.02 nM (1.5-fold).

COc1ccc2nc(Nc3cc(N)cc(C#N)c3)nc(N3CCC[C@@H](NC(C)=O)C3)c2c1 [Example 21, (R)—N-(1-[2-{(3-amino-5-cyanophenyl)-amino}-6-methoxyquinazolin-4-yl]piperidin-3-yl)acetamide] and COc1ccc2c(N3CC[C@H](NC(C)=O)C3)nc(Nc3cc(N)cc(C#N)c3)nc2c1 [Example 147, (S)—N-(1-[2-{(3-amino-5-cyanophenyl)amino}-7-methoxyquinazolin-4-yl]pyrrolidin-3-yl)acetamide] are the same in EC50: 0.01 nM for the first, 0.01 nM for the second.

First: CC(=O)N[C@H]1CCN(c2nc(Nc3cc(N)cc(C#N)c3)nc3cc(C(F)(F)F)ccc23)C1 [Example 28, (S)—N-(1-[2-{(3-amino-5-cyanophenyl)amino}-7-(trifluoromethyl)quinazolin-4-yl]pyrrolidin-3-yl)-acetamide]
Second: CC(=O)N[C@H]1CCN(c2nc(Nc3cc(N)cc(C#N)c3)nc3cc(F)ccc23)C1 [Example 85, (S)—N-[1-{2-(3-amino-5-cyanophenylamino)-7-fluoroquinazolin-4-yl}pyrrolidin-3-yl]acetamide hydrochloride]
The EC50 of the first is 9.8-fold higher: 0.39 nM for the first, 0.04 nM for the second.

Going from N#Cc1cc(N)cc(Nc2nc(N3CC[C@H](N)C3)c3ccccc3n2)c1 [Example 31, (S)-3-amino-5-{4-(3-aminopyrrolidin-1-yl)-quinazolin-2-ylamino}benzonitrile dihydrochloride] to CCN[C@H]1CCN(c2nc(Nc3cc(N)cc(C#N)c3)nc3ccccc23)C1 [Example 141, (S)-3-amino-5-([4-{3-(ethylamino)pyrrolidin-1-yl}quinazolin-2-yl]amino)benzonitrile], the EC50 falls from 0.03 nM to 0.01 nM (3-fold). The second is the more potent here.

Compared with N#Cc1cc(N)cc(Nc2nc(N3CC[C@H](NC(=O)Cc4cccs4)C3)c3ccccc3n2)c1 [Example 37, (S)—N-[1-{2-(3-amino-5-cyanophenylamino)quinazolin-4-yl}pyrrolidin-3-yl]-2-(thiophen-2-yl)acetamide], CC(C)N[C@H]1CCN(c2nc(Nc3cc(N)cc(C#N)c3)nc3ccccc23)C1 [Example 46, (S)-3-amino-5-[4-{3-(isopropylamino)pyrrolidin-1-yl}quinazolin-2-ylamino]benzonitrile] is 1.7-fold higher in EC50: 0.03 nM for the first, 0.05 nM for the second.

Going from CCCCCN[C@H]1CCN(c2nc(Nc3cc(N)cc(C#N)c3)nc3ccccc23)C1 [Example 41, (S)-3-amino-5-[4-{3-(pentylamino)-pyrrolidin-1-yl}quinazolin-2-ylamino]benzonitrile] to CCCN[C@H]1CCN(c2nc(Nc3cc(N)cc(C#N)c3)nc3cccnc23)C1 [Example 159, (S)-3-amino-5-([4-{3-(propylamino)pyrrolidin-1-yl}pyrido[3,2-d]pyrimidin-2-yl]amino)benzonitrile dihydrochloride], the EC50 rises from 0.0024 nM to 0.01 nM (4.2-fold).

COc1cccc2c(N3CCC[C@@H](NC(C)=O)C3)nc(Nc3cc(N)cc(C(F)(F)F)c3)nc12 [Example 64, (R)—N-[1-{2-(3-amino-5-trifluoromethylphenylamino)-8-methoxyquinazolin-4-yl}piperidin-3-yl]acetamide] and CC(=O)N[C@@H]1CCCN(c2nc(Nc3ccc(N)c(C(F)(F)F)c3)nc3c(C)cccc23)C1 [Example 80, (R)—N-(1-[2-{4-amino-3-(trifluoromethyl)phenylamino}-8-methylquinazolin-4-yl]piperidin-3-yl)acetamide hydrochloride] are within 1.5-fold of each other in EC50: 0.03 nM for the first, 0.04 nM for the second.

CN[C@H]1CCN(c2nc(Nc3cc(N)cc(C#N)c3)nc3cccc(C)c23)C1 [Example 68, (S)-3-amino-5-[5-methyl-4-{3-(methylamino)pyrrolidin-1-yl}quinazolin-2-ylamino]benzonitrile] and CC(=O)N[C@H]1CCN(c2nc(Nc3cc(N)cc(C#N)c3)nc3cc(Cl)ccc23)C1 [Example 81, (S)—N-[1-{2-(3-amino-5-cyanophenylamino)-7-chloroquinazolin-4-yl}pyrrolidin-3-yl]acetamide hydrochloride] are within 1.5-fold of each other in EC50: 0.08 nM for the first, 0.06 nM for the second.

CC(=O)N[C@H]1CCN(c2nc(Nc3cc(N)cc(C#N)c3)nc3c2CCCC3)C1 [Example 88, (S)—N-[1-{2-(3-amino-5-cyanophenylamino)-5,6,7,8-tetrahydroquinazolin-4-yl}pyrrolidin-3-yl]acetamide] and CC(=O)N[C@H]1CCN(c2nc(Nc3cc(N)cc(C#N)c3)nc3c2CCC3)C1 [Example 168, (S)—N-(1-[2-{(3-amino-5-cyanophenyl)amino}-6,7-dihydro-5H-cyclopenta[d]pyrimidin-4-yl]pyrrolidin-3-yl)acetamide hydrochloride] are the same in EC50: 0.01 nM for the first, 0.01 nM for the second.

CCN[C@H]1CCN(c2nc(Nc3cc(N)cc(C#N)c3)nc3c2CCCC3)C1 [Example 105, (S)-3-amino-5-[4-{3-(ethylamino)pyrrolidin-1-yl}-5,6,7,8-tetrahydroquinazolin-2-ylamino]benzonitrile dihydrochloride] and CCCN[C@H]1CCN(c2nc(Nc3cc(N)cc(C#N)c3)nc3c2CCC3)C1 [Example 184, (S)-3-amino-5-([4-{3-(propylamino)pyrrolidin-1-yl}-6,7-dihydro-5H-cyclopenta[d]pyrimidin-2-yl]amino)benzonitrile dihydrochloride] are the same in EC50: 0.01 nM for the first, 0.01 nM for the second.

First: CNC(=O)[C@@H]1CCCN(c2nc(Nc3cc(N)cc(C(F)(F)F)c3)nc3c2CCCC3)C1 [Example 123, (R)-1-[2-{3-amino-5-(trifluoromethyl)phenylamino}-5,6,7,8-tetrahydroquinazolin-4-yl]-N-methylpiperidine-3-carboxamide]
Second: CN[C@@H]1CCCN(c2nc(Nc3cc(N)cc(C(F)(F)F)c3)nc3c2CCCC3)C1 [Example 213, (R)—N^1-[4-{3-(methylamino)piperidin-1-yl}-5,6,7,8-tetrahydroquinazolin-2-yl]-5-(trifluoromethyl)benzene-1,3-diamine dihydrochloride]
The EC50 of the first is 1.6-fold lower: 0.01 nM for the first, 0.016 nM for the second. The first is the more potent here.

First: CC(=O)N[C@H]1CCN(c2nc(Nc3ccc(Cl)c(N)c3)nc3ccccc23)C1 [Example 133, (S)—N-(1-[2-{(3-amino-4-chlorophenyl)amino}quinazolin-4-yl]pyrrolidin-3-yl)acetamide]
Second: CC(=O)N[C@@H]1CCCN(c2nc(Nc3ccc(N)c([N+](=O)[O-])c3)nc3c2CCC3)C1 [Example 198, (R)—N-(1-[2-{(4-amino-3-nitrophenyl)amino}-6,7-dihydro-5H-cyclopenta[d]pyrimidin-4-yl]piperidin-3-yl}acetamide hydrochloride]
The EC50 of the first is 3-fold higher: 0.03 nM for the first, 0.01 nM for the second. The second is the more potent here.

First: Nc1cc(Nc2nc(N3CCC[C@@H](N)C3)c3ncccc3n2)cc(C(F)(F)F)c1 [Example 167, (R)—N^1-{4-(3-aminopiperidin-1-yl)pyrido[3,2-d]pyrimidin-2-yl}-5-trifluoromethyl)benzene-1,3-diamine dihydrochloride]
Second: N#Cc1cc(N)cc(Nc2nc3c(c(N4CCC[C@@H](N)C4)n2)CCC3)c1 [Example 199, (R)-3-amino-5-[{4-(3-aminopiperidin-1-yl)-6,7-dihydro-5H-cyclopenta[d]pyrimidin-2-yl}amino]benzonitrile dihydrochloride]
The EC50 of the first is 4.5-fold higher: 0.09 nM for the first, 0.02 nM for the second. The second is the more potent here.

Compared with N#Cc1cc(N)cc(Nc2nc3c(c(N4CC[C@H](N)C4)n2)CCC3)c1 [Example 174, (S)-3-amino-5-[{4-(3-aminopyrrolidin-1-yl)-6,7-dihydro-5H-cyclopenta[d]pyrimidin-2-yl}amino]benzonitrile dihydrochloride], CN[C@@H]1CCCN(c2nc(Nc3cc(N)cc(C#N)c3)nc3c2CCC3)C1 [Example 204, (R)-3-amino-5-([4-{3-(methylamino)piperidin-1-yl}-6,7-dihydro-5H-cyclopenta[d]pyrimidin-2-yl]amino)benzonitrile dihydrochloride] is 2-fold lower in EC50: 0.02 nM for the first, 0.01 nM for the second. The second is the more potent here.

With CNC(=O)[C@@H]1CCCN(c2nc(Nc3ccc(N)c([N+](=O)[O-])c3)nc3c2CCC3)C1 [Example 224, (R)-1-[2-{(4-amino-3-nitrophenyl)amino}-6,7-dihydro-5H-cyclopenta[d]pyrimidin-4-yl]-N-methylpiperidine-3-carboxamide hydrochloride] the EC50 was 0.0087 nM.

Source: patent US20170152241A9, “BICYCLIC DERIVATIVE CONTAINING PYRIMIDINE RING, AND PREPARATION METHOD THEREFOR” (YUHAN CORPORATION, priority 2013, published 2017)
